Test results reported in patent US20250263385A1 (SANOFI, priority 2022, published 2025).

Tested on: Human erythropoietin (hEPO) levels in sera
Assay: Delivery of hEPO mRNA by intramuscular administration of lipid nanoparticles; serum hEPO by ELISA
Format: in vivo, Mouse (female BALB/cJ)
Conditions: single IM injection of 0.1 μg hEPO mRNA LNP in 30 μL into right gastrocnemius, female BALB/cJ mice, cationic lipids in formulation 1, MC3 in formulation 2; for hEPO 6 Hr (ng/mL) Mean: 6 hours post dose; for hEPO 24 Hr (ng/mL) Mean: 24 hours post dose
Procedure: Lipid nanoparticle formulations of Table 3 were prepared by Process A. All of the lipid nanoparticle formulations comprised hEPO mRNA and the different lipids (Cationic Lipid: DMG-PEG2000: Cholesterol: DOPE/DSPC) in the mol % ratios specified in Table 3.
The cationic lipids of the present invention were evaluated with lipid nanoparticle formulation 1. MC3 was evaluated with lipid nanoparticle formulation 2, which is a typical MC3 formulation.
In summary, lipid screening studies were conducted with female BALB/cJ mice 6-8 weeks of age. Mice were dosed with 0.1 μg in 30 μL of LNPs by a single intramuscular (IM) injection into the gastrocnemius leg muscle. Blood samples were taken 6 and 24 hours post injection and hEPO levels were measured in the blood serum of the mice using an ELISA assay according to the manufacture's protocol. WO2022/099003 A1 also describes an in vivo assay for intramuscular administration (e.g. on page 46, paragraph [00206]).
Treatment Regimen: On Day 1, animals from Groups 1-13 were dosed via intramuscular injection while under light isoflurane anesthesia according to the study design table above. Animals in Groups 1-13 were injected with EPO mRNA LNPs in the right leg only. Group 1 animals received MC3 control. The cationic lipid MC3 is the current gold standard for in vivo delivery of e.g. siRNA (see WO2010/144740).
Interim Sample Collections: Interim whole blood (^˜50 μL) was collected by tail snip or saphenous vein at 6 and 24 hours post dose administration (±5%). Blood samples were collected into serum separator tubes, allowed to clot at room temperature for at least 10 minutes, centrifuged at ambient temperature at minimum 1000 g for 10 minutes and the serum was extracted. All serum samples were stored at nominally −70° C. until analysis hEPO by the Testing Facility. The results of the EPO analysis were included in the Data Submission.
Terminal Blood Collections: Whole blood was collected via cardiac puncture into serum separator tube, allowed to clot at room temperature for at least 10 minutes, centrifuged at ambient temperature at minimum 1000 g for 10 minutes and the serum was extracted. Serum samples were stored at nominally −70° C. until analyzed for hEPO by the Test Facility.
ELISA Assay: Human erythropoietin (hEPO) levels in sera samples were determined by ELISA kit (R&D systems, Cat #DEP-00) according to the manufactory instruction and the results were included in the Data Submission. The “shaker” protocol was used. The serum samples were diluted between 1:40 and 1:100.

SMILES | hEPO 6 Hr (ng/mL) Mean [ng/mL] | hEPO 24 Hr (ng/mL) Mean [ng/mL]
CCCCOC(=O)CCCCCCC(O)CN(CCCSSCCN1CCN(CCOC(=O)CCCCN(CC(O)CCCCCCC(=O)OCC(CC)CC)CC(O)CCCCCCC(=O)OCC(CC)CC)CC1)CC(O)CCCCCCC(=O)OCCCC (centres unmarked) [Compound 6, Dibutyl 9,9′-((3-((2-(4-(2-((5-(bis(9-(2-ethylbutoxy)-2-hydroxy-9-oxononyl)amino)-pentanoyl)oxy)ethyl)piperazin-1-yl)ethyl)disulfaneyl)propyl)azanediyl)bis(8-hydroxynonanoate)] | 8.72 | 8.90
CCCCOC(=O)CCCCCCC(O)CN(CCCCSSCCN1CCN(CCOC(=O)CCCCN(CC(O)CCCCCCC(=O)OCC(CC)CC)CC(O)CCCCCCC(=O)OCC(CC)CC)CC1)CC(O)CCCCCCC(=O)OCCCC (centres unmarked) [Compound 12] | 8.06 | 4.86
CCC(CC)COC(=O)CCCCCCC(O)CN(CCCC(=O)OCCN1CCN(CCSSCCCN(CC(O)CCCCCCC(=O)OCCC(C)C)CC(O)CCCCCCC(=O)OCCC(C)C)CC1)CC(O)CCCCCCC(=O)OCC(CC)CC (centres unmarked) [Compound 29, Bis(2-ethylbutyl) 9,9′-((4-(2-(4-(2-((3-(bis(2-hydroxy-9-(isopentyloxy)-9-oxononyl)-amino)propyl)disulfaneyl)ethyl)piperazin-1-yl)ethoxy)-4-oxobutyl)azanediyl)bis(8-hydroxynonanoate)] | 10.01 | 4.93
CCCCOC(=O)CCCCCCC(O)CN(CCCC(=O)OCCN1CCN(CCSSCCCN(CC(O)CCCCCCC(=O)OCC(CC)CC)CC(O)CCCCCCC(=O)OCC(CC)CC)CC1)CC(O)CCCCCCC(=O)OCCCC (centres unmarked) [Compound 42, Dibutyl 9,9′-((5-(2-(4-(2-((4-(bis(9-(2-ethylbutoxy)-2-hydroxy-9-oxononyl)amino)propyl)disulfaneyl)ethyl)piperazin-1-yl)ethoxy)-4-oxobutyl)azanediyl)bis(8-hydroxynonanoate)] | 9.07 | 3.06
CCC(CC)COC(=O)CCCCCCC(O)CN(CCCSSCCN1CCN(CCOC(=O)CCCN(CC(O)CCCCC(=O)OCCC(C)C)CC(O)CCCCC(=O)OCCC(C)C)CC1)CC(O)CCCCCCC(=O)OCC(CC)CC (centres unmarked) [Compound 45, Bis(2-ethylbutyl) 9,9′-((3-((2-(4-(2-((4-(bis(2-hydroxy-7-(isopentyloxy)-7-oxoheptyl)amino)-butanoyl)oxy)ethyl)piperazin-1-yl)ethyl)disulfaneyl)propyl)azanediyl)bis(8-hydroxynonanoate)] | 8.33 | 3.99
CCC(CC)COC(=O)CCCCCCC(O)CN(CCCSSCCN1CCN(CCOC(=O)CCCN(CC(O)CCCC(=O)OC(CC)CC)CC(O)CCCC(=O)OC(CC)CC)CC1)CC(O)CCCCCCC(=O)OCC(CC)CC (centres unmarked) [Compound 46, Bis(2-ethylbutyl) 9,9′-((3-((2-(4-(2-((4-(bis(2-hydroxy-6-oxo-6-(pentan-3-yloxy)hexyl)-amino)butanoyl)oxy)ethyl)piperazin-1-yl)ethyl)disulfaneyl)propyl)azanediyl)bis(8-hydroxynonanoate)] | 12.38 | 5.78
CCC(CC)COC(=O)CCCCCCC(O)CN(CCCC(=O)OCCN1CCN(CCSSCCCCN(CC(O)CCCCC(=O)OCC(CC)CC)CC(O)CCCCC(=O)OCC(CC)CC)CC1)CC(O)CCCCCCC(=O)OCC(CC)CC (centres unmarked) [Compound 50, Bis(2-ethylbutyl) 9,9′-((4-(2-(4-(2-((4-(bis(7-(2-ethylbutoxy)-2-hydroxy-7-oxoheptyl)amino)-butyl)disulfaneyl)ethyl)piperazin-1-yl)ethoxy)-4-oxobutyl)azanediyl)bis(8-hydroxynonanoate)] | 14.94 | 8.87
CCC(CC)COC(=O)CCCCCCC(O)CN(CCCCC(=O)OCCN1CCN(CCSSCCCCN(CC(O)CCCCC(=O)OCC(CC)CC)CC(O)CCCCC(=O)OCC(CC)CC)CC1)CC(O)CCCCCCC(=O)OCC(CC)CC (centres unmarked) [Compound 51, Bis(2-ethylbutyl) 9,9′-((5-(2-(4-(2-((4-(bis(7-(2-ethylbutoxy)-2-hydroxy-7-oxoheptyl)amino)-butyl)disulfaneyl)ethyl)piperazin-1-yl)ethoxy)-5-oxopentyl)azanediyl)bis(8-hydroxynonanoate)] | 16.39 | 9.03
CCCCOC(=O)CCCCCCC(O)CN(CCCCC(=O)OCCN1CCN(CCSSCCCCN(CC(O)CCCCCCC(=O)OCC(CC)CC)CC(O)CCCCCCC(=O)OCC(CC)CC)CC1)CC(O)CCCCCCC(=O)OCCCC (centres unmarked) [Compound 53, Dibutyl 9,9′-((5-(2-(4-(2-((4-(bis(9-(2-ethylbutoxy)-2-hydroxy-9-oxononyl)amino)-butyl)disulfaneyl)ethyl)piperazin-1-yl)ethoxy)-5-oxopentyl)azanediyl)bis(8-hydroxynonanoate)] | 9.07 | 4.66
CCC(CC)COC(=O)CCCCCCC(O)CN(CCCCSSCCN1CCN(CCOC(=O)CCCN(CC(O)CCCCC(=O)OCC(CC)CC)CC(O)CCCCC(=O)OCC(CC)CC)CC1)CC(O)CCCCCCC(=O)OCC(CC)CC (centres unmarked) [Compound 57, Bis(2-ethylbutyl) 9,9′-((4-((2-(4-(2-((4-(bis(7-(2-ethylbutoxy)-2-hydroxy-7-oxoheptyl)amino)butanoyl)oxy)ethyl)piperazin-1-yl)ethyl)disulfaneyl)butyl)azanediyl)bis(8-hydroxynonanoate)] | 13.33 | 8.19
CCCCOC(=O)CCCCCCC(O)CN(CCCCC(=O)OCCN1CCN(CCSSCCCN(CC(O)CCCCC(=O)OC(C)C)CC(O)CCCCC(=O)OC(C)C)CC1)CC(O)CCCCCCC(=O)OCCCC (centres unmarked) [Compound 78] | 7.05 | 3.30
CCC(CC)COC(=O)CCCCC(O)CN(CCCSSCCN1CCN(CCOC(=O)CCCN(CC(O)CCCCC(=O)OCC(CC)CC)CC(O)CCCCC(=O)OCC(CC)CC)CC1)CC(O)CCCCC(=O)OCC(CC)CC (centres unmarked) [Compound 92, Bis(2-ethylbutyl) 7,7′-((3-((2-(4-(2-((4-(bis(7-(2-ethylbutoxy)-2-hydroxy-7-oxoheptyl)amino)butanoyl)oxy)ethyl)piperazin-1-yl)ethyl)disulfaneyl)propyl)azanediyl)bis(6-hydroxyheptanoate)] | 13.11 | 5.75
CCCCC/C=C\C/C=C\CCCCCCCCC(CCCCCCCC/C=C\C/C=C\CCCCC)OC(=O)CCCN(C)C [MC3, reference compound] | 3.94 | 2.44
